The source of these data is US20030139368A1, “Antithrombotic and/or anti-inflammatory composition combining purine activity and NSAID activity” (priority 2000, published 2003).

The test system of one data set is rat platelets. In words: Aggregation of rat platelets (platelet rich plasma) stimulated by ADP, aggregometer. The format is cell-based. The note with it: for aggregation: without AMP 80%. How it is done: Blood was collected on a citrate buffer from rats that had not received any treatment or from humans who had not received any treatment during the two weeks preceding collection of the blood sample. Platelet rich plasma was prepared by centrifugation using known methods. Measurements were performed using an aggregometer marketed under the name “Chrono-log”. The measurements were processed and digitized using an “MP30 Biopac” data acquisition system.

The subject of a further data set is human platelets. As to the kind of experiment: Response of human platelets stimulated by collagen. The class given is cell-based. The note with it: collagen 0.19 mg/ml; substance 0.6 mM. How it is done: Platelet rich plasma was prepared by centrifugation using known methods.
Measurements were performed using an aggregometer marketed under the name “Chrono-log”. The measurements were processed and digitized using an “MP30 Biopac” data acquisition system.
We studied the response of human platelets stimulated by collagen (0.19 mg/ml, Biodata). Two parameters were measured: the latency time (elapsed time between bringing the platelets into contact with collagen and the beginning of aggregation) and the maximum amplitude of aggregation.

The next data set has as its system gastric mucosa. As to the kind of experiment: Gastric toxicity, macroscopic and histologic observation of the stomach. The class given is in vivo. The note with it: 100 mg/kg by gavage, fasted rats, 3 hours. How it is done:
This test was performed on Sprague Dawley rats (IFFA CREDO, l'Arbresle, France). The rats were in a fasting state the evening before the experiment (but drinking water was available ad libitum). […] Three hours later, the rats were sacrificed by a lethal dose of pentobarbital. The stomach was removed, opened along the greater curvature and rinsed with water. The gastric mucosa was photographed and digitized using a Macintosh G3 computer equipped with a program (NIH, USA) and a video card (Scion, USA). The stomach was fixed with buffered formalin and then processed with the conventional histological techniques for paraffin inclusion. The sections (5 μm) were then stained with hematoxylin-eosin-safranin.
Two observations were performed: macroscopic (after the stomach was collected, under the microscope) and histologic.

A further data set has as its system male mice. As to the kind of experiment: Anti-inflammatory effect: carrageenan-induced inflammation in air pocket, leukocyte count in exudate. The format is in vivo. The settings on record: for Number of leukocytes: 100 mg/kg/day by gastric gavage on days 3, 4, 5, exudate 4 hours after carrageenan, controls 9.57 ± 0.48; for % inhibition: 100 mg/kg/day by gastric gavage, versus controls. How it is done:
The test was performed on male mice weighing 20 g. This protocol lasted 5 days. On day 1, we injected 3 cm^3 of air in the dorsal part via the subcutaneous route. The resultant air pockets were reinflated on days 2, 3 and 4 with 1 cm^3 of air. […] We induced inflammation by injection of 1 ml of a 2% (weight/volume) suspension of carrageenan in PBS buffer into the air pocket. After 4 hours, the pockets were washed with 2 ml of PBS and the exudates were collected. Aliquot parts were diluted to 1:1 with a 0.01% solution of methylene blue in a PBS buffer. We then performed counting of the cells (principally neutrophils) whose accumulation was induced by the inflammation.

Regarding `Nc1ncnc2c1ncn2[C@@H]1O[C@H](COP(=O)(O)O)[C@@H](O)[C@H]1O` [AMP, (5′-O-phosphate)adenosine], the aggregation with rat platelets (ADP 20 μM in the presence of 2.5 mM AMP) is given as 40%. Besides, the aggregation in the data set with rat platelets (ADP 20 μM in the presence of 5.0 mM AMP) is reported as 20%. Moreover, the “effect on aggregation already induced” value in the data set with rat platelets (ADP 20 μM, AMP 10 mM added 30 seconds later) is given as “immediate disaggregation”. In the data set with human platelets, the “latency time multiplied by (factor)” value is given as “circa 1.5” and the “maximum response (maximum amplitude of aggregation) to collagen” value is listed as “not modified”.
As to `O=C(Nc1ncnc2c1ncn2[C@@H]1O[C@H](CO)[C@@H](O)[C@H]1O)c1ccccc1O` [Example 3, adenosine N-salicylyl], in the data set on gastric mucosa, the “damage to the gastric wall (macroscopic and histologic)” value was “did not cause damage to the gastric wall”. Moreover, in the data set with male mice, the Number of leukocytes came out at 3.80 ± 0.80 millions/ml and the “% inhibition” value was found to be 60%.
`Nc1ncnc2c1ncn2[C@@H]1O[C@H](CO)[C@@H](O)[C@H]1O` [adenosine]: the “aggregation compared with AMP (5 mM)” value with rat platelets (ADP 20 μM, adenosine 4 mM in place of AMP 5 mM) is given as “Comparable results”.
Consider `CC(=O)Oc1ccccc1C(=O)O` [aspirin, acetylsalicylic acid], for which, in the data set on male mice, the Number of leukocytes is listed as 6.40 ± 0.77 millions/ml and the “% inhibition” value was 33%.
For the compound `O=C([O-])c1ccccc1O.[Na+]` [sodium salicylate], the “inhibition of platelet aggregation” value in the data set with rat platelets (sodium salicylate 7.5 mM added to plasma, then ADP 20 μM) was “No significant inhibition”.
